Measured values published in PMC8213057, “Targeting ALK2: An Open Science Approach to Developing Therapeutics for the Treatment of Diffuse Intrinsic Pontine Glioma” (Journal of Medicinal Chemistry, 2020).

Legend:
TEC = molecular target: T1, TEC (Homo sapiens, UniProt P42680); details: 1 μM; Run 1, Run 2
T1 sequence (P42680 1-631): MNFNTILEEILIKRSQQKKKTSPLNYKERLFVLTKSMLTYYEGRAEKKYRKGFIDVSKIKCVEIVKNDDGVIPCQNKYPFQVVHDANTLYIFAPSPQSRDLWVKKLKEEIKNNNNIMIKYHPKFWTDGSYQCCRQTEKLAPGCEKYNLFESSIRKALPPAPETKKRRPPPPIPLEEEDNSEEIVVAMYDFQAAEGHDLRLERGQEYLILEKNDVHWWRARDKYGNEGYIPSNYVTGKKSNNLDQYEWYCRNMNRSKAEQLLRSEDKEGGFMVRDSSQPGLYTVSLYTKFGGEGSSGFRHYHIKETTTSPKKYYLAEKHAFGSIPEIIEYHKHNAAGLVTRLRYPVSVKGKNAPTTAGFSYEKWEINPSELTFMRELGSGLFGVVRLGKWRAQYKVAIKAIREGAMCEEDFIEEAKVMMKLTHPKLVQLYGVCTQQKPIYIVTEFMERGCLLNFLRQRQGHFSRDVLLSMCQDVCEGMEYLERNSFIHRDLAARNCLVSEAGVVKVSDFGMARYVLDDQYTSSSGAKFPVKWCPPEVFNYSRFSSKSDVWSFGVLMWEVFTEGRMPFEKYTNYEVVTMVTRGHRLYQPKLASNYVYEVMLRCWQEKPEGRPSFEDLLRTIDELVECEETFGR

CDK9/cyclin T1 = CDK9/cyclin T1 (Homo sapiens, UniProt P50750); details: 1 μM; Run 1, Run 2
CDK9/cyclin T1, sequence (P50750 whole entry): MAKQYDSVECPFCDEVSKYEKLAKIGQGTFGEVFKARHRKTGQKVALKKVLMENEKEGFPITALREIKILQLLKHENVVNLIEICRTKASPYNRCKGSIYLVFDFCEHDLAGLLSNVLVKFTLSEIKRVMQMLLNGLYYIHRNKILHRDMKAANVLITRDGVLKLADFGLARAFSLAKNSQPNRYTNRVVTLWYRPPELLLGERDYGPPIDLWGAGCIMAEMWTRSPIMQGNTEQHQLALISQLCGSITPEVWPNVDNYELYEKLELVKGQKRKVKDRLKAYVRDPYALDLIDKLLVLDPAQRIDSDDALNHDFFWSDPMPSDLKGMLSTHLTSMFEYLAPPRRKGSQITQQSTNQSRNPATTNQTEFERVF
CDK9/cyclin T1, sequence (O60563 whole entry partner): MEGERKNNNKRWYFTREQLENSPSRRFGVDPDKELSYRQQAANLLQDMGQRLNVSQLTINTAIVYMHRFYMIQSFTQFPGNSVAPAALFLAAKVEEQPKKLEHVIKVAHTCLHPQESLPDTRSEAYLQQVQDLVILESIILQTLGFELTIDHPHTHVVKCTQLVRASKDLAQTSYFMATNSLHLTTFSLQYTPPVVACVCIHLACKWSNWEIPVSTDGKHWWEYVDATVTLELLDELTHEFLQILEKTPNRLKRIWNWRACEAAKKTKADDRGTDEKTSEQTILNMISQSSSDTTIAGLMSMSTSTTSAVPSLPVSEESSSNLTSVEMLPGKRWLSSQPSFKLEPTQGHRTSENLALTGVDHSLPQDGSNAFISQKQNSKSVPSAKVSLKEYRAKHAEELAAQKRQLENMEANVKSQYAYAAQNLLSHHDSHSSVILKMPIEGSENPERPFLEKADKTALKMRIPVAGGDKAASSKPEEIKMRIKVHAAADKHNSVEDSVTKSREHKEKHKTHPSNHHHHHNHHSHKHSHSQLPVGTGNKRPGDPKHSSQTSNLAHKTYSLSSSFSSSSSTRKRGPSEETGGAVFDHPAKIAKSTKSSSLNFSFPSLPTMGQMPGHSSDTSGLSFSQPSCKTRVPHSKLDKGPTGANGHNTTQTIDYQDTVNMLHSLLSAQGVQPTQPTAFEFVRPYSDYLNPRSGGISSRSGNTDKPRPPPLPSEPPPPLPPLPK

STK38/NDR1 = STK38/NDR1 (Homo sapiens, UniProt Q15208); experiment: biochemical; details: read-out: % enzyme activity, 1 μM; Run 1, Run 2
ERBB2/HER2 = ERBB2/HER2 (Homo sapiens, UniProt P04626); details: 1 μM; Run 1, Run 2
c-Kit = c-Kit (Homo sapiens, UniProt P10721); details: 1 μM; Run 1, Run 2
c-Kit, sequence (P10721 26-976): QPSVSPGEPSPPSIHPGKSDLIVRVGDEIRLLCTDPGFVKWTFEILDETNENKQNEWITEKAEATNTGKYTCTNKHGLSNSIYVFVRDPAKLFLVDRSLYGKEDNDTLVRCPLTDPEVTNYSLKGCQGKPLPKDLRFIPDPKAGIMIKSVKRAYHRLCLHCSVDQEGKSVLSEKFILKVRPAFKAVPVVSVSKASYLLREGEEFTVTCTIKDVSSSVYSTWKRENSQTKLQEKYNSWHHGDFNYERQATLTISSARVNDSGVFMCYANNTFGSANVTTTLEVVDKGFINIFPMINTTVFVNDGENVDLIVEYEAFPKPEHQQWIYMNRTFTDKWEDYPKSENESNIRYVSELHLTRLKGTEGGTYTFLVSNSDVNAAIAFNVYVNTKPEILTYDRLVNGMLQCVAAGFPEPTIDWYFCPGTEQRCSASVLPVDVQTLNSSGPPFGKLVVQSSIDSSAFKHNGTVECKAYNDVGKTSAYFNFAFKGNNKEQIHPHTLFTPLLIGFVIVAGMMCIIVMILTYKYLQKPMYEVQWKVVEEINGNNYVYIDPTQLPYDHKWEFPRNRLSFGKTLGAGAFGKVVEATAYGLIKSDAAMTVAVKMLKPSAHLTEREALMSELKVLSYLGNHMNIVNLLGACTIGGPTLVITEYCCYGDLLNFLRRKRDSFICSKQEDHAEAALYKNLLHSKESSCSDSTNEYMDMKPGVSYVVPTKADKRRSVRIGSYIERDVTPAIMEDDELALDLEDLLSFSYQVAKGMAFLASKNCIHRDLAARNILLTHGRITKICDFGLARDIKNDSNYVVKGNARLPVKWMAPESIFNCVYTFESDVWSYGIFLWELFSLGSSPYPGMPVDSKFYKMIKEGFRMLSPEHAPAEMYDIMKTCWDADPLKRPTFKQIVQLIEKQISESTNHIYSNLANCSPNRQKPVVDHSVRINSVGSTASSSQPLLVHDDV

MST1/STK4 = molecular target: T2, MST1/STK4 (Homo sapiens, UniProt Q13043); experiment: biochemical; details: read-out: % enzyme activity, 1 μM; Run 1, Run 2
T2 sequence (Q13043 1-487): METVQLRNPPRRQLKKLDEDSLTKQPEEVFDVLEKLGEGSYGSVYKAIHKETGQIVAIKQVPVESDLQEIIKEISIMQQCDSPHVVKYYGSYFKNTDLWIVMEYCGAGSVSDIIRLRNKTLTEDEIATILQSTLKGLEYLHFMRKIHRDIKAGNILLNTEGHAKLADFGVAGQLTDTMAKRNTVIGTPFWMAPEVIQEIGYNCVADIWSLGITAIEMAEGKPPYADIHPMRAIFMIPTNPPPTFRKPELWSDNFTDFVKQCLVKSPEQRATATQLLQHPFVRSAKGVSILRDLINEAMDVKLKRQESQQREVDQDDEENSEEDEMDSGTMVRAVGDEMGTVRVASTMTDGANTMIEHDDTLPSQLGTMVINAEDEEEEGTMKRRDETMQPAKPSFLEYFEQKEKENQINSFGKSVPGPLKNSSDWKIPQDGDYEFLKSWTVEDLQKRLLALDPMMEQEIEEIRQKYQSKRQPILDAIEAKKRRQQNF

RSK2 = RSK2 (Homo sapiens, UniProt P51812); details: 1 μM; Run 1, Run 2
CK1a1L = molecular target: T3, CK1a1L (Homo sapiens, UniProt Q8N752); details: 1 μM; Run 1, Run 2
T3 sequence (Q8N752 1-337): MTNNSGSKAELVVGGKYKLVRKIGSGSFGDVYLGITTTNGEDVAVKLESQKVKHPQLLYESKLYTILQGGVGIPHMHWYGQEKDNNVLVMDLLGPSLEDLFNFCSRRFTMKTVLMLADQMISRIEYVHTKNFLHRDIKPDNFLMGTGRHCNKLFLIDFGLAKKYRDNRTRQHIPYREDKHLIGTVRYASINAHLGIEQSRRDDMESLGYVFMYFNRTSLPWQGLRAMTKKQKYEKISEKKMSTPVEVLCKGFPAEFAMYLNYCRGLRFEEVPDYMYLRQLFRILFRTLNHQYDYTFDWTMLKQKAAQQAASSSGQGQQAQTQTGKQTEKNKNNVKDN

PIM2 = PIM2 (Homo sapiens, UniProt Q9P1W9); experiment: biochemical; details: read-out: % enzyme activity, 1 μM; Run 1, Run 2
PIM2, sequence (Q9P1W9 whole entry): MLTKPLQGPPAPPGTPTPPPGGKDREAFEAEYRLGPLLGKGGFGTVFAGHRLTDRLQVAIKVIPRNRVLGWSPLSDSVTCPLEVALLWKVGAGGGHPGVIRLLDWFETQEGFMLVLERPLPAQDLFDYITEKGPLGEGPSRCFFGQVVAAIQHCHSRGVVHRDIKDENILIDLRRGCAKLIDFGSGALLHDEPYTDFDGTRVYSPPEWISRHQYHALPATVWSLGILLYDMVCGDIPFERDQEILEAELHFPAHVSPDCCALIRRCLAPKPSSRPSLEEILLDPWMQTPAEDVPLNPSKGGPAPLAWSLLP

SIK1 = SIK1 (Homo sapiens, UniProt P57059); experiment: biochemical; details: read-out: % enzyme activity, 1 μM; Run 1, Run 2
SIK1, sequence (P57059 whole entry): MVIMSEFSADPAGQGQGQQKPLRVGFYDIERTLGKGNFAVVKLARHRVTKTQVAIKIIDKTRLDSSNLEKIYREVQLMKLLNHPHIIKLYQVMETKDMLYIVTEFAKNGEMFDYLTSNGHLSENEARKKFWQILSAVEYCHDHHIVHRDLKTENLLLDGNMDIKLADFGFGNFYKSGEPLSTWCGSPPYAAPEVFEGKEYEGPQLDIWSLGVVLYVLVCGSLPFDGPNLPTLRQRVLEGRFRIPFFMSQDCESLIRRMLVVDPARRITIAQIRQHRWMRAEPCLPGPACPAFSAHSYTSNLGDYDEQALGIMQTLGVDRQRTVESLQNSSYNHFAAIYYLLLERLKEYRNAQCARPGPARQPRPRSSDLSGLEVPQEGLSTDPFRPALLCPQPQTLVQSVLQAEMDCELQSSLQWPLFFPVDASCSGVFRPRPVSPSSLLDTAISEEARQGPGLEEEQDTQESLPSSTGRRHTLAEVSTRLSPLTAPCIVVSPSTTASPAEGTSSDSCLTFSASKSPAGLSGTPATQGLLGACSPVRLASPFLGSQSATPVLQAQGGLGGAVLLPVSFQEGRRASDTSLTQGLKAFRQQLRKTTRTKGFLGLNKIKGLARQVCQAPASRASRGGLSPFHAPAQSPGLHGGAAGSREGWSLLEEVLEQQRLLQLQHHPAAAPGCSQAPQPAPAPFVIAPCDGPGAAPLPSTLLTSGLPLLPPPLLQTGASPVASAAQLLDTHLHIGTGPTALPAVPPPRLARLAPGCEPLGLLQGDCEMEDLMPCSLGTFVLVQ

PAK3 = PAK3 (Homo sapiens, UniProt O75914); details: 1 μM; Run 1, Run 2
JAK1 = JAK1 (Homo sapiens, UniProt P23458); experiment: biochemical; details: read-out: % enzyme activity, 1 μM; Run 1, Run 2
JAK1, sequence (P23458 whole entry): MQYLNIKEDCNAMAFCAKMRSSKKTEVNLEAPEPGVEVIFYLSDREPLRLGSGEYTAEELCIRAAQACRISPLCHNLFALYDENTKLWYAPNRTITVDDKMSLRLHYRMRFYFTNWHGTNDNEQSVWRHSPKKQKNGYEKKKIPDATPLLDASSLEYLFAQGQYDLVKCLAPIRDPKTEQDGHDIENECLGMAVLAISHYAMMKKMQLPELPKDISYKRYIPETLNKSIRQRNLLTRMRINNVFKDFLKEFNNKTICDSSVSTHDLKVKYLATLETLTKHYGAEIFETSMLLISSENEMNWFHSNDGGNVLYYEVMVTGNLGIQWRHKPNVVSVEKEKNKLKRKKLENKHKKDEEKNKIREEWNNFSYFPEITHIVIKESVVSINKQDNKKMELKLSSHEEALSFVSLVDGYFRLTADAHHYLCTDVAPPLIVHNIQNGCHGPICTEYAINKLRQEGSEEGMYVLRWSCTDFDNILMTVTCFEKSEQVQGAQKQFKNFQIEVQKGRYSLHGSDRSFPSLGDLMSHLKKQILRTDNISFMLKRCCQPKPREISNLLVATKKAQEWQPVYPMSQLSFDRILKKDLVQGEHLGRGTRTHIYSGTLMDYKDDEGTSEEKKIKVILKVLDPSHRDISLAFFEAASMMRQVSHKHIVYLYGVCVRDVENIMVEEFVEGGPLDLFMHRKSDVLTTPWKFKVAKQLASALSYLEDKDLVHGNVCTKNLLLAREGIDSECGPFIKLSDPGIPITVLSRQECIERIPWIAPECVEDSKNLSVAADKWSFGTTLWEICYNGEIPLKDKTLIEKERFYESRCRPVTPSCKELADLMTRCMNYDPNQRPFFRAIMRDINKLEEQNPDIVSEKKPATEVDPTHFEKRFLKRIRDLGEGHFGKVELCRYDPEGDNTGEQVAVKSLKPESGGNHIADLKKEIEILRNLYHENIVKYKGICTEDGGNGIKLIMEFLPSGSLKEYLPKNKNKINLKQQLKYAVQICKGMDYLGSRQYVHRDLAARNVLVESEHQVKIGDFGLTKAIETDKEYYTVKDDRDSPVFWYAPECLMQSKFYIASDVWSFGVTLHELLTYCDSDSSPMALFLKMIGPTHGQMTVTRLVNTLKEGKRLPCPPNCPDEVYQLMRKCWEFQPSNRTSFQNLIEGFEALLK

ZIPK/DAPK3 = ZIPK/DAPK3 (Homo sapiens, UniProt O43293); details: 1 μM; Run 1, Run 2
ZIPK/DAPK3, sequence (O43293 whole entry): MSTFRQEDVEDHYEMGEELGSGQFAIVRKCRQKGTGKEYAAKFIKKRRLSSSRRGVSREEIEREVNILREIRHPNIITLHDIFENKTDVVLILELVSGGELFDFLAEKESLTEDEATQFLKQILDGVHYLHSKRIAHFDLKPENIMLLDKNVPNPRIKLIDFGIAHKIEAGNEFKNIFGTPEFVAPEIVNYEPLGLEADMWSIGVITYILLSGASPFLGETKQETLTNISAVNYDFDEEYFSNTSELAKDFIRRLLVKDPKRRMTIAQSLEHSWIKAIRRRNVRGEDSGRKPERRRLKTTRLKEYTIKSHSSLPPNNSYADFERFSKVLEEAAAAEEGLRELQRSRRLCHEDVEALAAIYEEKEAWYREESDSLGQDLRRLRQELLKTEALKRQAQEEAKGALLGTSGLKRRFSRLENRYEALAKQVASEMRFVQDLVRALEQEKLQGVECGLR

P38a/MAPK14 = P38a/MAPK14 (Homo sapiens, UniProt Q16539); experiment: biochemical; details: read-out: % enzyme activity, 1 μM; Run 1, Run 2
MARK2/PAR-1Ba = MARK2/PAR-1Ba (Homo sapiens, UniProt Q7KZI7); details: 1 μM; Run 1, Run 2

| SMILES | % enzyme activity (TEC) | % enzyme activity (CDK9/cyclin T1) | remaining activity at 1 µM (STK38/NDR1) | % enzyme activity (ERBB2/HER2) | % enzyme activity (c-Kit) | remaining activity at 1 µM (MST1/STK4) | % enzyme activity (RSK2) | % enzyme activity (CK1a1L) | remaining activity at 1 µM (PIM2) | remaining activity at 1 µM (SIK1) | % enzyme activity (PAK3) | remaining activity at 1 µM (JAK1) | % enzyme activity (ZIPK/DAPK3) | remaining activity at 1 µM (P38a/MAPK14) | % enzyme activity (MARK2/PAR-1Ba) |
| --- | --- | --- | --- | --- | --- | --- | --- | --- | --- | --- | --- | --- | --- | --- | --- |
| COc1cc(-c2cncc(-c3ccc(N4CCN(C)CC4)cc3)c2C)cc(F)c1C(N)=O [Compound 26a, 2-Fluoro-6-methoxy-4-(4-methyl-5-(4-(4-methylpiperazin-1-yl)phenyl)pyridin-3-yl)benzamide] | 107.42% | 90.82% | 91.9% | 89.07% | 74.03% | 101% | 99.92% | 97.55% | 99.2% | 82.9% | 87.14% | 102% | 103.31% | 92.7% | 91.66% |
| COc1cc(-c2cncc(-c3ccc(N4C[C@@H](C)N(C)[C@@H](C)C4)cc3)c2C)cc(F)c1C(N)=O [Compound 26c, 2-Fluoro-6-methoxy-4-(4-methyl-5-(4-((3R,5S)-3,4,5-trimethylpiperazin-1-yl)phenyl)pyridin-3-yl)benzamide] | 106.19% | 96.85% | 96.7% | 95.40% | 74.89% | 103% | 101.06% | 99.15% | 99.7% | 93.8% | 124.21% | 101% | 102.34% | 97% | 103.03% |
